In PMC3545992, “Trisubstituted Pyrazolopyrimidines as Novel Angiogenesis Inhibitors” (PLoS ONE, 2013):

Columns and labels:
HUVECs [1] = experiment: Scratch assay (migration assay); format: cell-based, human; conditions: 10 µM, 16 h, HUVECs
Protocol: A: HMEC-1 cells were seeded in the same density as for the proliferation assay and treated with the respective compound at 30 µM for 72 h to test whether reduced cell numbers in the proliferation assay are due to inhibition of proliferation or to excessive cell death. No increase of detached, obviously dead or propidium iodide positive cells was detected. B and C: Confluent layers of HUVECs were scratched and the cells were allowed to migrate for 16 h in the presence or absence of 10 µM of the compounds. B: The columns indicate the area re-covered by migrating cells (n = 3, mean ± SEM, * p<0.05, One Way ANOVA, Dunnett). C: Scratches at endpoint, representative images taken out of three experiments.
HUVECs were seeded into a 24-well plate. After reaching confluency, cells were scratched using a 100 µl pipette tip. The wounded monolayers were washed twice with PBS containing Ca^2+/Mg^2+; then growth medium containing the indicated concentration of the compounds was added. After 16 h of migration, cells were washed and subsequently fixed with 4% paraformaldehyde. […] Images were taken using the TILLvisON system (TILL Photonics GmbH, Gräfelfing, Germany) and a CCD-camera connected to an Axiovert 200 microscope (Zeiss, Oberkochen, Germany). Quantitative image analysis of the cell covered area was done by Wimasis GmbH, Munich. A completely closed scratch was set as 100% migration, the area of the original open scratch was set as 0% migration.

HUVECs [2] = experiment: Cell viability assay (CellTiter-Blue) in confluent HUVECs; format: cell-based, human; conditions: 30 µM, 16 h
Protocol: Figure 2 Cdk5 is expressed in HUVECs and HMEC-1 cells, and the compounds are not cytotoxic to endothelial cells at concentrations used in functional assays. A: Cdk5 protein expression in endothelial cells in comparison to human cortex. Cdk5 protein amount was analyzed by Western blot in samples of human cortex (HC), confluent HUVECs (HU) and HMEC-1 (HM). β-actin served as a loading control and for normalization of protein amount. Relative quantification (left panel) and one representative image (right panel) of three individual blots are shown. Note the much lower protein loading in the HC sample in the right panel. (n = 3, mean ± SEM, p>0.05, One Way ANOVA, Dunnett). B: Confluent HUVECs were treated for 16 h with 10 or 30 µM of the indicated compounds or left untreated as control. After addition of CellTiter-BlueTM Reagent, cells were incubated for 4 h and fluorescence was measured at 560 nm (n = 3, mean ± SEM, * p<0.05, One Way ANOVA, Dunnett).
HUVECs were seeded in 96-well plates. After reaching confluency, the cells were treated for 16 h with the indicated compounds or left untreated as control. After addition of CellTiter-Blue^TM Reagent (Promega Corporation, Madison, WI, USA), cells were incubated for additional 4 h and fluorescence was measured at 560 nm in a plate-reading photometer (SpectraFluor Plus; Tecan, Crailsheim, Germany).

HUVECs [3] = experiment: Quantification of lamellipodia and Rac1 immunocytochemistry in migrating cells; format: cell-based, human; conditions: 8 h migration; for reduction of formation of lamellipodia: 10 µM; for recruitment of Rac1 to lamellipodia (in words): immunofluorescence
Protocol: A: Confluent layers of HUVECs were scratched and the cells were allowed to migrate for 8 h in the presence or absence of the respective concentration of the compounds, until clear lamellipodia formation was visible in the control. The actin cytoskeleton was then stained with rhodamin-phalloidine and fluorescence images (10x magnification) of the scratches were taken. Left panel: For quantitative evaluation of lamellipodia formation, cells with prominent lamellipodia and ruffles were counted in relation to the number of cells at the scratch front (n = 3, mean ± SEM, * p<0.05, One Way ANOVA, Dunnett). Right panel: Representative images of the scratch front (f-actin, 40x magnification). B: Cells treated like in A were fixed and stained for f-actin (red), cortactin (green) and Rac1 (white). Representative images out of three experiments are shown.
Confluent layers of HUVECs were scratched and stimulated in 8-well μ-slides as described above. The cells were allowed to migrate for 8 h in the presence or absence of the respective concentration of the compounds, until clear lamellipodia formation was visible in the control. The actin cytoskeleton was then stained with rhodamine-phalloidin (Life Technologies, Darmstadt, Germany) and fluorescence images of the scratches were taken in 10x magnification with the Zeiss LSM 510 META. For quantitative evaluation of lamellipodia formation, cells with prominent lamellipodia and ruffles were counted with ImageJ (Cell Counter plug-in by Kurt De Vos) in relation to the total number of cells at the scratch front. The ratio was calculated as number of lamellipodia-positive cells per 100 cells at scratch front. In the same setting immunofluorescence staining was performed. Fixed cells were permeabilized for 2 min with 0.1% Triton X-100 in PBS. Cells were washed and unspecific binding was blocked with 0.2% BSA in PBS for 15 min. Thereafter, cells were incubated with primary antibody (cortactin: rabbit polyclonal, 1∶100, Cell Signaling, and Rac1: mouse monoclonal, 1∶100, Upstate) in 0.2% BSA/PBS over night at 4°C. After three washing steps with PBS, the specimen were incubated with the corresponding AlexaFluor® -labeled secondary antibodies for 30 min at room temperature. Finally, the slides were again washed three times with PBS (5 min), embedded in FluorSave^TM Reagent mounting medium and covered with 8 mm ×8 mm glass cover slips.

Cdk7/CycH/MAT1 = molecular target: T1, Cdk7/CycH/MAT1 (Homo sapiens, UniProt P50613); experiment: In vitro kinase profile (ProQinase); format: biochemical
T1 construct: purchased ProQinase (Freiburg, Germany)
Protocol: (§1) Therefore, it was of interest to see which kinases, especially which Cdks, are inhibited by those compounds. The kinase profiling was performed by ProQinase (Freiburg, Germany) for LGR 1406 and 1407. For LGR 1404 kinase profiling has recently been published previously. LGR 1406 and 1407 were tested for their IC50 in a panel of 24 kinases, including the Cdk1, Cdk2, Cdk4, Cdk5, Cdk6, Cdk7 and Cdk9. The other kinases tested were PTK6, EGFR, FAK, FGFR1 and FGFR2, NLK, PAK4, VEGFR1 and VEGFR2, MEK1, ROCK1, RAF1, ALK, RSK3, AURKA, and AMPKα1.

Cdk2/CycA = molecular target: T2, Cdk2/CycA (Homo sapiens, UniProt P24941); experiment: In vitro kinase profile (ProQinase); format: biochemical
T2 construct: purchased ProQinase (Freiburg, Germany)
Protocol: as §1

Cdk5/p25 = molecular target: T3, Cdk5/p25 (Homo sapiens, UniProt Q00535); experiment: In vitro kinase profile (ProQinase); format: biochemical
T3 construct: purchased ProQinase (Freiburg, Germany)
Protocol: as §1

Cdk1/CycB = molecular target: T4, Cdk1/CycB (Homo sapiens, UniProt P06493); experiment: In vitro kinase profile (ProQinase); format: biochemical
T4 construct: purchased ProQinase (Freiburg, Germany)
Protocol: as §1

T4 sequence (P06493 whole entry): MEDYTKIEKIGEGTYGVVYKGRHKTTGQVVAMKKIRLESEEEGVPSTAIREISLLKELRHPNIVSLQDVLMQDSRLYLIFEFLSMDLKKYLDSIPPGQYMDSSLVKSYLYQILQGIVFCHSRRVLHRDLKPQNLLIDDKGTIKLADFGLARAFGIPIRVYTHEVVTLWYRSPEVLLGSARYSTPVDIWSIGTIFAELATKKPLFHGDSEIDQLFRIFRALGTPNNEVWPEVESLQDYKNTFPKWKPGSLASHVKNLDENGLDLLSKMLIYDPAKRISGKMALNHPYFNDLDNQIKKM
T4 sequence (P14635 whole entry partner): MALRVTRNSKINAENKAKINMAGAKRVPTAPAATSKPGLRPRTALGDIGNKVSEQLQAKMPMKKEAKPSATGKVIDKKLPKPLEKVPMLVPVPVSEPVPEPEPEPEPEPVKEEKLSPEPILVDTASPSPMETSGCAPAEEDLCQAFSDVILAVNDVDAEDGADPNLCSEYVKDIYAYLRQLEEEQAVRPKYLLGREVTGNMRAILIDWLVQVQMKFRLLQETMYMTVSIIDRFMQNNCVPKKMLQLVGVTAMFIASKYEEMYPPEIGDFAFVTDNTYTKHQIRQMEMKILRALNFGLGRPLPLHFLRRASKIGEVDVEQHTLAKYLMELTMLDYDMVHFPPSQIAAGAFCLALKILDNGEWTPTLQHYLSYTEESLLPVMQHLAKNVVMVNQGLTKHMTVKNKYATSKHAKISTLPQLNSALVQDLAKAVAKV
T3 sequence (Q00535 whole entry): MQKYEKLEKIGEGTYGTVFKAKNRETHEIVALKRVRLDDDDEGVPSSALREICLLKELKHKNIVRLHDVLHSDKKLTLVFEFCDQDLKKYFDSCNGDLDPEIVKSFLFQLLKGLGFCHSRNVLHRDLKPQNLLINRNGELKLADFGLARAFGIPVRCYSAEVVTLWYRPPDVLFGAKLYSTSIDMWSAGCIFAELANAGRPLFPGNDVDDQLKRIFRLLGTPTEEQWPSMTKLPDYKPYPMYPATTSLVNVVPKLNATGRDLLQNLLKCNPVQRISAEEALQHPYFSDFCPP
T3 sequence (Q15078 99-307 partner limits assumed): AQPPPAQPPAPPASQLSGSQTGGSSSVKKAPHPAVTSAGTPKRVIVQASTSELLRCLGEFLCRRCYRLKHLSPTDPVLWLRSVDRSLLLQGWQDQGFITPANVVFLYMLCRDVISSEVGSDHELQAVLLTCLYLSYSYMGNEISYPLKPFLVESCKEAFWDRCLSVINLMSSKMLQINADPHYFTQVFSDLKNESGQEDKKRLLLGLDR
T1 sequence (P50613 whole entry): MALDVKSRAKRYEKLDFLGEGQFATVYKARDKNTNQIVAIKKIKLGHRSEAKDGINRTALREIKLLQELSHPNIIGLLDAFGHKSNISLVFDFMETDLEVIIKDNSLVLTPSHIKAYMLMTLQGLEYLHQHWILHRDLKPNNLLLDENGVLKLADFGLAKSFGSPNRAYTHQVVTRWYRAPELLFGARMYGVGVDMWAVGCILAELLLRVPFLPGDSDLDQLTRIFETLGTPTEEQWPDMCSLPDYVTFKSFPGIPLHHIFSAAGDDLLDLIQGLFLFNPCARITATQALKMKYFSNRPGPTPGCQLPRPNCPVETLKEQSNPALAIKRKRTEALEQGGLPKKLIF
T1 sequence (P51946 whole entry partner): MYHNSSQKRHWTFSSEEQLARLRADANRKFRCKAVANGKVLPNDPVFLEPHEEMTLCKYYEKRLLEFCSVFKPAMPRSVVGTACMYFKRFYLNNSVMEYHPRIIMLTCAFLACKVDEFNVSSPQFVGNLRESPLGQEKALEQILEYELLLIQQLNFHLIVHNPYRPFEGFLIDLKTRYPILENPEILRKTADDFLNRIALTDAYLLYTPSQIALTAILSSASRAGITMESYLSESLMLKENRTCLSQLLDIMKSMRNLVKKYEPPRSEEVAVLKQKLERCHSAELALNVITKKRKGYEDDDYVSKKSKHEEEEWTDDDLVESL
T1 sequence (P51948 whole entry partner): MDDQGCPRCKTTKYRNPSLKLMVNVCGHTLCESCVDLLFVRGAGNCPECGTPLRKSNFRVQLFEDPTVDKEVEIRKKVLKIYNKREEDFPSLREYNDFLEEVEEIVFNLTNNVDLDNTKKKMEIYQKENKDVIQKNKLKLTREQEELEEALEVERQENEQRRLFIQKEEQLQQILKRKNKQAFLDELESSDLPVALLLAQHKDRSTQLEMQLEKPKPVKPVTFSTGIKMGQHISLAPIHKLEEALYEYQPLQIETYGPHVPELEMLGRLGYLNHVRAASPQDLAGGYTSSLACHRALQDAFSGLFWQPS

Row | Compound | effect on endothelial cell migration (in words) (HUVECs [1]) | reduction of endothelial cell migration (HUVECs [1]) [%] | cell viability in comparison to control (HUVECs [2]) | reduction of formation of lamellipodia (HUVECs [3]) [%] | recruitment of Rac1 to lamellipodia (in words) (HUVECs [3]) | IC50 (Cdk7/CycH/MAT1) [nM] | IC50 (Cdk2/CycA) [nM] | IC50 (Cdk5/p25) [nM] | IC50 (Cdk1/CycB) [nM]
1 | CC[C@H](CO)Nc1nc(NCc2ccccc2)c2n[nH]c(C(C)C)c2n1 [LGR 1404, 7-Benzylamino-5(R)-[(1-hydroxymethyl)propylamino]-3-isopropyl-1(2)H-pyrazolo[4,3-d]pyrimidine] | significantly decrease | 27 | weak but significant decrease of viability | 54 | inhibit recruitment of Rac1 to lamellipodia | – | – | – | –
2 | CC(C)c1n[nH]c2c(NCc3ccccc3)nc(NC3CCCCC3N)nc12 (centres unmarked) [LGR 1406, 5-[(2-E/Z-aminocyclohexyl)amino]-7-benzylamino-3-isopropyl-1(2)H-pyrazolo[4,3-d]pyrimidine] | significantly decrease | 51 | weak but significant decrease of viability | 67 | inhibit recruitment of Rac1 to lamellipodia | > 100000 | 990 | 440 | 3200
3 | CC(C)c1n[nH]c2c(NCc3ccccc3)nc(NC3CCC(N)CC3)nc12 (centres unmarked) [LGR 1407, 5-[(4-E-aminocyclohexyl)amino]-7-benzylamino-3-isopropyl-1(2)H-pyrazolo[4,3-d]pyrimidine] | significantly decrease | 31 | weak but significant decrease of viability | 67 | inhibit recruitment of Rac1 to lamellipodia | > 100000 | 1500 | 1600 | 5800
